Results from US12325697B2 (Nimbus Clio, Inc., priority 2021, dated 2025).

What was measured:
[1] = target: Recombinant human c-Cbl (aa 47-435) (Homo sapiens (Human), UniProt P22681); assay: c-Cbl Biochemical Assay (TR-FRET)
Outline: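 TR-FRET binding of UBE2D2-Ub-Bodipy (100 nM) to biotinylated c-Cbl (aa 47-435, 6 nM) via Streptavidin-Tb, measured after c-Cbl activation by Src-Zap70 with 0.5 mM ATP (60-90 min RT, 30 min compound preincubation). Ten-point half-log dilutions, 1% DMSO; IC50 by 4-parameter fit of normalized inhibition.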

[2] = target: Recombinant human Cbl-b (aa 36-427) (Homo sapiens (Human), UniProt Q13191); assay: Cbl-b Biochemical Assay (TR-FRET); conditions: read-out: TR-FRET hCbl-b IC50
Recombinant human Cbl-b (aa 36-427), sequence (Q13191 36-427): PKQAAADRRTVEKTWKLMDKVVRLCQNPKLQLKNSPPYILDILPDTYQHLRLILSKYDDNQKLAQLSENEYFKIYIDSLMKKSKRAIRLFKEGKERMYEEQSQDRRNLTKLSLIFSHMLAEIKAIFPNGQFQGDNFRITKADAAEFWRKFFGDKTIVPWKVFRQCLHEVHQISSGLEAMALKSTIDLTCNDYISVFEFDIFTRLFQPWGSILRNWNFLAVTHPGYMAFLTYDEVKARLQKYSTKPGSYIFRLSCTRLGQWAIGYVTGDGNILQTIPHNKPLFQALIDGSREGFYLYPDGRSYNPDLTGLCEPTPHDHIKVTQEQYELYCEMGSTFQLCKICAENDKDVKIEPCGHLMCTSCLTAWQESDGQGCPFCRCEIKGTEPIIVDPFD
Outline: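 IC50 from 4-parameter fit of % inhibition (DMSO max, reference-inhibitor min), duplicate ten-point series. Compound preincubated with 6 nM Cbl-b, then Src-Zap70 (1-2.5 nM)/0.5 mM ATP reaction 60 min RT; EDTA quench with labelled UBE2D2-Ub and streptavidin-terbium, 60 min, HTRF at 520 nm.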

Recombinant human c-Cbl (aa 47-435), sequence (P22681 47-435): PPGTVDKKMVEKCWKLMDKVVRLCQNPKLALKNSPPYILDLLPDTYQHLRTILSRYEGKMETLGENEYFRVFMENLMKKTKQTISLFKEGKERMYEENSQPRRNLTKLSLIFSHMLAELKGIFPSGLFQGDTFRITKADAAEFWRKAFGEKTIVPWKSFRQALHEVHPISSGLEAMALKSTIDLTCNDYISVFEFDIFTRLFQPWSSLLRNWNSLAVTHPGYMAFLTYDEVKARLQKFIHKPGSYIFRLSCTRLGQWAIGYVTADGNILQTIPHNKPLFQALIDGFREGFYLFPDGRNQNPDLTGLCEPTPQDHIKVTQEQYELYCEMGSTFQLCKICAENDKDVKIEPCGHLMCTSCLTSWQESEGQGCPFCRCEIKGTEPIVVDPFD

| SMILES | IC50 [1] [nM] | IC50 [2] [nM] |
| --- | --- | --- |
| Cn1cnnc1-c1cc(C#N)ccc1-c1cc(C2CC2)nc(N2Cc3c(F)cc(CN4CC[C@@H]5C[C@@H]54)cc3C2=O)c1 [AMY-1, 4-(2-{6-[(1S,5R)-2-Azabicyclo[3.1.0]hexan-2-ylmethyl]-4-fluoro-1-oxo-3H-isoindol-2-yl}-6-cyclopropylpyridin-4-yl)-3-(4-methyl-1,2,4-triazol-3-yl)benzonitrile] | ≤ 200 | ≤ 200 |
| Cn1cnnc1-c1cc(C#N)ccc1-c1cc(C2CC2)nc(N2Cc3c(F)cc(CNCC4(F)CCC4)cc3C2=O)c1 [AKK-1, 4-{2-Cyclopropyl-6-[4-fluoro-6-({[(1-fluorocyclobutyl)methyl]amino}methyl)-1-oxo-3H-isoindol-2-yl]pyridin-4-yl}-3-(4-methyl-1,2,4-triazol-3-yl)benzonitrile] | ≤ 200 | ≤ 200 |
| COC[C@@H]1CCCN1Cc1cc(F)c2c(c1)C(=O)N(c1cc(-c3ccc(C#N)cc3-c3nncn3C)cc(C3CC3)n1)C2 [AOY-2, (S)-4-(2-Cyclopropyl-6-(4-fluoro-6-((2-(methoxymethyl)pyrrolidin-1-yl)methyl)-1-oxoisoindolin-2-yl)pyridin-4-yl)-3-(4-methyl-4H-1,2,4-triazol-3-yl)benzonitrile] | ≤ 200 | ≤ 200 |
| COc1cc(COCC2(O)CCC2)cc2c1CN(c1cc(-c3ccc(F)cc3-c3nncn3C)cc(C3CC3)n1)C2=O [AIC-11, 2-{6-Cyclopropyl-4-[4-fluoro-2-(4-methyl-1,2,4-triazol-3-yl)phenyl]pyridin-2-yl}-6-{[(1-hydroxycyclobutyl)methoxy]methyl}-4-methoxy-3H-isoindol-1-one] | ≤ 200 | ≤ 200 |
| COc1cc2c(cc1CO)C(=O)N(c1cc(-c3ccc(C#N)cc3-c3nncn3C)cc(C3CC3)n1)C2 [AKL-2, 4-{2-Cyclopropyl-6-[6-(hydroxymethyl)-5-methoxy-1-oxo-3H-isoindol-2-yl]pyridin-4-yl}-3-(4-methyl-1,2,4-triazol-3-yl)benzonitrile] | ≤ 200 | ≤ 200 |
| CCOc1cc(-c2ccc(C#N)cc2-c2nncn2C)cc(N2Cc3ccc(CNCCOC)cc3C2=O)n1 [AHS-2, 4-(2-Ethoxy-6-(6-(((2-methoxyethyl)amino)methyl)-1-oxoisoindolin-2-yl)pyridin-4-yl)-3-(4-methyl-4H-1,2,4-triazol-3-yl)benzonitrile] | ≤ 200 | ≤ 200 |
| COCC(NCc1cc(F)c2c(c1)C(=O)N(c1cc(-c3ccc(C#N)cc3-c3nncn3C)cc(C3CC3)n1)C2)C(F)(F)F (centres unmarked) [ANW-3, 4-[2-Cyclopropyl-6-(4-fluoro-1-oxo-6-{[(1,1,1-trifluoro-3-methoxypropan-2-yl)amino]methyl}-3H-isoindol-2-yl)pyridin-4-yl]-3-(4-methyl-1,2,4-triazol-3-yl)benzonitrile] | ≤ 200 | ≤ 200 |
| Cn1cnnc1-c1cc(C#N)ccc1-c1cc(C2CC2)nc(N2Cc3c(F)cc(CNC4CC4)cc3C2=O)c1 [ALR-1, 4-(2-Cyclopropyl-6-{6-[(cyclopropylamino)methyl]-4-fluoro-1-oxo-3H-isoindol-2-yl}pyridin-4-yl)-3-(4-methyl-1,2,4-triazol-3-yl)benzonitrile] | ≤ 200 | ≤ 200 |
| CCOc1cc(-c2ccc(F)cc2-c2nncn2C)cc(N2Cc3ccc(CN(C)CC4(O)CCC4)cc3C2=O)n1 [AJT-1, 2-{6-Ethoxy-4-[4-fluoro-2-(4-methyl-1,2,4-triazol-3-yl)phenyl]pyridin-2-yl}-6-({[(1-hydroxycyclobutyl)methyl] (methyl)amino}methyl)-3H-isoindol-1-one] | ≤ 200 | ≤ 200 |
| Cn1cnnc1-c1cc(C#N)ccc1-c1cc(C2CC2)nc(N2Cc3cc(Cl)c(CNCC4CCCC4)cc3C2=O)c1 [AKO-2, 4-(2-(5-Chloro-6-(((cyclopentylmethyl)amino)methyl)-1-oxoisoindolin-2-yl)-6-cyclopropylpyridin-4-yl)-3-(4-methyl-4H-1,2,4-triazol-3-yl)benzonitrile] | ≤ 200 | ≤ 200 |
| Cn1cnnc1-c1cc(C#N)ccc1-c1cc(C2CC2)nc(N2Cc3ccc(C(C)(C)NC4CCC4)cc3C2=O)c1 [AOI-1, 4-(2-{6-[2-(Cyclobutylamino)propan-2-yl]-1-oxo-3H-isoindol-2-yl}-6-cyclopropylpyridin-4-yl)-3-(4-methyl-1,2,4-triazol-3-yl)benzonitrile] | ≤ 200 | ≤ 200 |
| C[C@@H](NCC1CCC1)c1ccc2c(c1)C(=O)N(c1cc(-c3ccc(C#N)cc3-c3nncn3C)cc(C3CC3)n1)C2 [AKA-1, (R)-4-(2-(6-(1-((Cyclobutylmethyl)amino)ethyl)-1-oxoisoindolin-2-yl)-6-cyclopropylpyridin-4-yl)-3-(4-methyl-4H-1,2,4-triazol-3-yl)benzonitrile] | ≤ 200 | ≤ 200 |
| Cn1cnnc1-c1cc(C#N)ccc1-c1cccc(N2Cc3ccc(CO)cc3C2=O)c1 [AJD-2, 3′-(6-(Hydroxymethyl)-1-oxoisoindolin-2-yl)-2-(4-methyl-4H-1,2,4-triazol-3-yl)-[1,1′-biphenyl]-4-carbonitrile] | 1000 to 10000 | 1000 to 10000 |
| C[C@H](c1ccc2c(c1)C(=O)N(c1cc(-c3ccc(C#N)cc3-c3nncn3C)cc(C3CC3)n1)C2)N1CC2(COC2)C1 [AOE-1, 4-(2-Cyclopropyl-6-{6-[(1R)-1-{2-oxa-6-azaspiro[3.3]heptan-6-yl}ethyl]-1-oxo-3H-isoindol-2-yl}pyridin-4-yl)-3-(4-methyl-1,2,4-triazol-3-yl)benzonitrile] | ≤ 200 | ≤ 200 |
| Cn1cnnc1-c1cc(C#N)ccc1-c1cc(C2CC2)nc(N2Cc3ccc(CN4CCOC5(COC5)C4)cc3C2=O)c1 [AOO-2, 4-[2-Cyclopropyl-6-(6-{2,5-dioxa-8-azaspiro[3.5]nonan-8-ylmethyl}-1-oxo-3H-isoindol-2-yl)pyridin-4-yl]-3-(4-methyl-1,2,4-triazol-3-yl)benzonitrile] | ≤ 200 | ≤ 200 |
| Cn1cnnc1-c1cc(C#N)ccc1-c1cc(C2CC2)nc(N2Cc3ccc(CNC4COC4)cc3C2=O)c1 [AMV-2, 4-(2-Cyclopropyl-6-{6-[(oxetan-3-ylamino)methyl]-1-oxo-3H-isoindol-2-yl}pyridin-4-yl)-3-(4-methyl-1,2,4-triazol-3-yl)benzonitrile] | ≤ 200 | ≤ 200 |
| Cn1cnnc1-c1cnn(C)c1-c1cc(C2CC2)nc(N2Cc3c(cc(CO)cc3C(F)(F)F)C2=O)c1 [AKI-1, 2-{6-Cyclopropyl-4-[2-methyl-4-(4-methyl-1,2,4-triazol-3-yl)pyrazol-3-yl]pyridin-2-yl}-6-(hydroxymethyl)-4-(trifluoromethyl)-3H-isoindol-1-one] | ≤ 200 | ≤ 200 |
| COC1(CNCc2ccc3c(c2)C(=O)N(c2cc(-c4ccc(C#N)cc4-c4nncn4C)cc(C4CC4)n2)C3)CCCC1 [AKE-2, 4-{2-Cyclopropyl-6-[6-({[(1-methoxycyclopentyl)methyl]amino}methyl)-1-oxo-3H-isoindol-2-yl]pyridin-4-yl}-3-(4-methyl-1,2,4-triazol-3-yl)benzonitrile] | ≤ 200 | ≤ 200 |
| Cn1cnnc1-c1cc(C#N)ccc1-c1cc(C2CC2)nc(N2Cc3ccc(C(C)(C)N)cc3C2=O)c1 [ALK-9, 4-{2-[6-(2-Aminopropan-2-yl)-1-oxo-3H-isoindol-2-yl]-6-cyclopropylpyridin-4-yl}-3-(4-methyl-1,2,4-triazol-3-yl)benzonitrile] | ≤ 200 | ≤ 200 |
